Experimental data published in PMC6691788, “Design and synthesis of phthalazine-based compounds as potent anticancer agents with potential antiangiogenic activity via VEGFR-2 inhibition” (Journal of Enzyme Inhibition and Medicinal Chemistry, 2019).

Legend:
HCT-116 = assay: In vitro cytotoxic activity, SRB assay; assay type: cell-based; conditions: Homo sapiens; HCT-116, 48h
Description: (§1) In addition, compounds (12a, 12b, 12c, 16b, 16c and 17b) were evaluated against a third cell line (HepG-2) These first two cell lines were selected based on the sensitivity of the previously NCI-tested derivatives towards them amongst the 60 NCI panel. The growth inhibition is expressed as the median growth inhibitory concentration (IC50) which corresponds to the concentration required for 50% inhibition of cell viability and are provided in (Table S6 in supplementary material).
(§2) 5,000 cells in fresh medium were seeded in 96-well microlitre plates and left to attach for 24h. Cells were incubated with the tested compounds at concentration range from 0,1,2.5,5,10 µg/ml and incubation was continued for48h. After 48h treatment,the cells were fixed with 50µl cold 50% trichloroacetic acid (TCA )for 1h at 4 °C. Wells were then washed 5 times with water and stained for 30 min at room temperature with 50µl of 0.4%SRB dissolved in 1% acetic acid. The wells were then washed 4 times with 1% acetic acid. The plates were air dried and the dye was solubilized with 100µl/well of 10mM tris base (pH 10.5) for 5min on a shaker (Orbital Shaker OS 20,Boeco,Germany) at 1600 rpm. The optical density (O.D.)of each well was measured spectrophotometrically at 564 nm with an enzyme linked immunosorbent assay( ELIZA) micraplate reader (Tecan Sunrise,Austria).The mean back ground absorbance was subtracted automatically and mean values for each drug concentration was calculated.
(§3) The percentage of cell survival was calculated as follows:
(§4) Survival fraction =O.D.(treated cells)/O.D.(control cells)
(§5) The IC50 value (the concentration required to produce 50% inhibition of cell growth) was calculated using sigmodial dose response curve-fitting models (GraphPad,Prizm software incorporated). Each concentration was repeated 3 times.

MCF-7 = assay: In vitro cytotoxic activity, SRB assay; assay type: cell-based; conditions: Homo sapiens, MCF7; MCF-7, 48h
Description: as §1, §2, §3, §4, §5

VEGFR-2 tyrosine kinase = molecular target: T1, VEGFR-2 tyrosine kinase (Homo sapiens, UniProt P35968); assay: In vitro VEGFR-2 tyrosine kinase assay (BPS Bioscience); assay type: biochemical; conditions: for inhibition at 10 µM: read-out: VEGFR-2 % inhibition, 10 μM concentration
T1 construct: purchased BPS Bioscience 40301
Description: The VEGFR tyrosine kinase assays were performed at BPS Bioscience (www.bpsbioscience.com). All the synthesised compounds representing the six series were evaluated for their ability to inhibit VEGFR-2 tyrosine kinase at single dose of 10 µM.
The VEGFR tyrosine kinase activity at single dose concentration of 10 μM was carried out by BPS Bioscience (www.bpsbioscience.com). VEGFR (BPS#40301) served as the enzyme source and Poly (Glu, Tyr) sodium salt, (4:1, Glu:Tyr) (Sigma#P7244) served as the standardized substrate & Kinase-Glo Plus Luminescence kinase assay kit (Promega#V3772). The IC50 determination was carried out where quality control testing is routinely performed on each of the targets to insure compliance to acceptable standards. ^33P-ATP was purchased from Perkin Elmer and ADP-Glo^TM was purchased from Promega. All other materials were of standard laboratory grade.
The VEGFR tyrosine kinase activity was performed using Kinase-Glo Plus luminescence kinase assay kit (Promega). It measures kinase activity by quantitating the amount of ATP remaining in solution following a kinase reaction. The luminescent signal from the assay is correlated with the amount of ATP present and is inversely correlated with the amount of kinase activity. The compounds were diluted to 100 μM in 10% DMSO and […] of the dilution was added to a […] reaction so that the final concentration of DMSO is 1% in all of reactions. All of the enzymatic reactions were conducted at 30 °C for 40 min. The 50 μl reaction mixture contains […], pH 7.4, […], 0.1 mg/ml BSA, 0.2 mg/ml Poly (Glu, Tyr) substrate, 10 μM ATP and VEGFR. After the enzymatic reaction, […] of Kinase-GloPlus Luminescence kinase assay solution (Promega) was added to each reaction and incubate the plate for 5 min at room temperature. Luminescence signal was measured using a BioTek Synergy 2 microplate reader. The protein kinase assays used to determine IC50 value were performed using ADP-GloTM assay kit from Promega which measures the generation of ADP by the protein kinase. Generation of ADP by the protein kinase reaction leads to an increase in luminescence signal in the presence of ADP-GloTM assay kit. The assay was started by incubating the reaction mixture in a 96-well plate at 30 °C for 30 min. After the 30 min incubation period, the assay was terminated by the addition of […] of ADP-GloTM Reagent (Promega). The 96 well plate was shaken and then incubated for 40 min at ambient temperature. […] of Kinase detection reagent was added, the 96-well reaction plate was then read using the ADP-Glo Luminescences Protocol on a GloMax plate reader (Promega: Catalog #E7031). Blank control was set up that included all the assay components except the addition of appropriate substrate (replace with equal volume of kinase assay buffer). The corrected activity for each protein kinase target was determined by removing the blank control value.
VEGFR activity assays were performed in duplicate at each concentration. The luminescence data were analyzed using the computer software, Graphpad Prism. The difference between luminescence intensities in the absence of VEGFR (Lut) and in the presence of VEGFR (Luc) was defined as 100% activity (Lut - Luc). […] IC50 determination for inhibitor against VEGFR was estimated by generating a graph of log inhibitor vs normalized response with variable using the Prism software.

HepG-2 = assay: In vitro cytotoxic activity, SRB assay; assay type: cell-based; conditions: Homo sapiens, HepG2; HepG-2, 48h
Description: as §1, §2, §3, §4, §5

T1 sequence (P35968 20-1356): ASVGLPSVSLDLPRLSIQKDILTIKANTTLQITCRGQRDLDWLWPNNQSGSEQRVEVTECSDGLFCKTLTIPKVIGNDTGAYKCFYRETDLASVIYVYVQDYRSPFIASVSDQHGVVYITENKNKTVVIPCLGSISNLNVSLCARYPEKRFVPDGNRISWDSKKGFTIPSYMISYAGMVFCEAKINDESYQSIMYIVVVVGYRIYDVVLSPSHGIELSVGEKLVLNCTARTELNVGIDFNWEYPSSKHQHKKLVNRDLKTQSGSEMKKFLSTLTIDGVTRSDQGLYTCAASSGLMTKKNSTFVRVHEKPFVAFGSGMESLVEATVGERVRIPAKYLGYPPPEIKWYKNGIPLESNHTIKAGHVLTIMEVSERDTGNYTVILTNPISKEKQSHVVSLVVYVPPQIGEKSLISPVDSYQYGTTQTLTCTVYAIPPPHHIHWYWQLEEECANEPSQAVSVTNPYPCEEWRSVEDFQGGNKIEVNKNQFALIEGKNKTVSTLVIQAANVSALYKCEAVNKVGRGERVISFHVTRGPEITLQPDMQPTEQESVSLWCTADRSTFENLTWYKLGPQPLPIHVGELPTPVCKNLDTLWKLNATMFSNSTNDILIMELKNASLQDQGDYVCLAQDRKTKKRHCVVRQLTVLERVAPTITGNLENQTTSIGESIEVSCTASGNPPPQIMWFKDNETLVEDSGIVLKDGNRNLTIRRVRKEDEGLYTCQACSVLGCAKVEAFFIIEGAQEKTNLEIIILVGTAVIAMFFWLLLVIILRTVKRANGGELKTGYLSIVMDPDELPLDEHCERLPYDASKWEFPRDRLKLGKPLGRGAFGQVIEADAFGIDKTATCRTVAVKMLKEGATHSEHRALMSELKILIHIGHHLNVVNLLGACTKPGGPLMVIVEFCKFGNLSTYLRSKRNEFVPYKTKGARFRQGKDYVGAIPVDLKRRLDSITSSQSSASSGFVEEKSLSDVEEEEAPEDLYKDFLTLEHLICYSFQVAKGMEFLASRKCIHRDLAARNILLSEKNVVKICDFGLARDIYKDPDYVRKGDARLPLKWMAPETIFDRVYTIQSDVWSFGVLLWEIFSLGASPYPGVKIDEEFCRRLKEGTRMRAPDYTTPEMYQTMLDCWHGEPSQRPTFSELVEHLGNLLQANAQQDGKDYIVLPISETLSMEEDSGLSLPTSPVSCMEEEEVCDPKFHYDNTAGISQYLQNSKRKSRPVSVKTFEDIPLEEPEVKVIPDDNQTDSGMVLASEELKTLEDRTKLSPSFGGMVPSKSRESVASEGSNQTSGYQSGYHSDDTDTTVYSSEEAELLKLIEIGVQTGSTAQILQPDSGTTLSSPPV

Row | Compound | melting point [°C] | inhibition at 10 µM (VEGFR-2 tyrosine kinase) [%] | IC50 (VEGFR-2 tyrosine kinase; 10 μM ATP/0.2 mg/ml poly-Glu-Tyr) [µM] | IC50 (HCT-116) [µM] | IC50 (MCF-7) [µM] | IC50 (HepG-2) [µM]
1 | O=C(Nc1ccccc1)Nc1ccc(Oc2nncc3ccccc23)cc1 [Compound 7a, 1-Phenyl-3–(4-(phthalazin-1-yloxy)phenyl)urea] | 180 to 182 | 5 |  |  |  | 
2 | O=C(Nc1ccc(Nc2nncc3ccccc23)cc1)Nc1ccc(Cl)c(C(F)(F)F)c1 [Compound 6c, 1–(4-Chloro-3-(trifluoromethyl)phenyl)-3–(4-(phthalazin-1-ylamino)phenyl)urea] | 288 to 291 | 70 | 13.4 | 6 | 6.2 | 
3 | Cc1nnc(Oc2ccc(NC(=O)Nc3ccc(Cl)c(C(F)(F)F)c3)cc2)c2ccccc12 [Compound 7f, 1–(4-Chloro-3-(trifluoromethyl)phenyl)-3–(4-(4-metyhlphthalazin-1-yloxy)phenyl)urea] | 150 to 152 | 21 |  | 49 | 31 | 
4 | O=C(Nc1ccc(Nc2nncc3ccccc23)cc1)c1ccccc1 [Compound 5a, N-(4-(Phthalazin-1-ylamino)phenyl)benzamide] | 142 to 144 | 4 |  | 977 | > 1000 | 
5 | Cc1nnc(Nc2ccc(NC(=O)c3ccccc3)cc2)c2ccccc12 [Compound 5c, N-(4–(4-Methylphthalazin-1-ylamino)phenyl)benzamide] | 283 to 285 | 12 |  | 15 | 22.9 | 
6 | Cc1nnc(Nc2ccc(NC(=O)Nc3ccc(Cl)c(C(F)(F)F)c3)cc2)c2ccccc12 [Compound 6f, 1–(4-Chloro-3-(trifluoromethyl)phenyl)-3–(4-(4-methylphthalazin-1-ylamino)phenyl)-urea] | 258 to 260 | 32 |  | 3.1 | 3.2 | 
7 | O=C(Nc1ccc(Oc2nncc3ccccc23)cc1)Nc1ccc(Cl)c(C(F)(F)F)c1 [Compound 7c, 1–(4-Chloro-3-(trifluoromethyl)phenyl)-3–(4-(phthalazin-1-yloxy)phenyl)urea] | 158 to 160 | 47 |  | 2.6 | 2.5 | 
8 | Cc1nnc(Oc2ccc(NC(=O)Nc3ccccc3)cc2)c2ccccc12 [Compound 7d] | 174 to 176 | 10 |  | 7.2 | 7.8 | 
9 | O=C(Nc1ccccc1)Nc1ccc(Nc2nncc3ccccc23)cc1 [Compound 6a, 1-Phenyl-3–(4-(phthalazin-1-ylamino)phenyl)urea] | 145 to 147 | 13 |  | 91.2 | 67.6 | 
10 | Cc1nnc(Nc2ccc(NC(=O)Nc3ccccc3)cc2)c2ccccc12 [Compound 6d, 1–(4-(4-Metyhlphthalazin-1-ylamino)phenyl)3-phenylurea] | 284 to 286 | 15 |  | 57.5 | 67.6 | 
11 | COc1cccc2c1C(=O)c1c(O)c3c(c(O)c1C2=O)C[C@@](O)(C(=O)CO)C[C@@H]3O[C@H]1C[C@H](N)[C@H](O)[C@H](C)O1 [Dox, doxorubicin, reference compound] |  |  |  | 0.62 | 0.9 | 0.5

More lines, main results first:

Row | melting point [°C] | inhibition at 10 µM (VEGFR-2 tyrosine kinase) [%] | IC50 (VEGFR-2 tyrosine kinase; 10 μM ATP/0.2 mg/ml poly-Glu-Tyr) [µM] | Compound | IC50 (HCT-116) [µM] | IC50 (MCF-7) [µM] | IC50 (HepG-2) [µM]
12 | 88 to 90 | 9 |  | Fc1ccccc1N1CCN(c2nncc3ccccc23)CC1 [Compound 8c, 1–(4-(2-Fluorophenyl)piperazin-1-yl)phthalazine] | 42.7 | 32.4 | 
13 | 90 to 92 | 9 |  | O=C(c1ccco1)N1CCN(c2nncc3ccccc23)CC1 [Compound 8e, Furan-2-yl-(4-(phthalazin-1-yl)piperazin-1-yl)methanone] | 513 | 190 | 
14 | 164 to 166 | 21 |  | Clc1ccc(Nc2nnc(CNc3cccc(Cl)c3)c3ccccc23)cc1 [Compound 16b, N-(4-Chlorophenyl)-4-((3-chlorophenylamino)methyl)phthalazin-1-amine] | 28.8 | 91 | 77.6
15 | 193 to 195 | 15 |  | Cc1cccc(OCc2nnc(Nc3ccc(Cl)cc3)c3ccccc23)c1 [Compound 17b, N-(4-Chlorophenyl)-4-(m-tolyloxymethyl)phthalazin-1-amine] | 38 | 13.5 | 39
16 | 225 to 227 | 26 |  | O=C(Nc1ccccc1)Nc1ccc(Nc2nnc(Cl)c3ccccc23)cc1 [Compound 12a, 1–(4-(4Chlorophthalazin-1-ylamino)phenyl)-3-phenylurea] | 479 | 81.3 | > 1000
17 | 130 to 132 | 19 |  | Cc1cccc(NCc2nnc(Nc3ccc(Cl)cc3)c3ccccc23)c1 [Compound 16c, N-(4-Chlorophenyl)-4-((m-tolylamino)methyl)phthalazin-1-amine] | 257 | > 1000 | > 1000
18 | 242 to 244 | 8 |  | c1ccc(N2CCN(c3nncc4ccccc34)CC2)cc1 [Compound 8b, 1–(4-Phenylpiperazin-1-yl)phthalazine] | 550 | 363 | 
19 | 90 to 92 | 10 |  | Cc1nnc(N2CCN(C(=O)c3ccco3)CC2)c2ccccc12 [Compound 8j, Furan-2-yl-(4–(4-methylphthalazin-1-yl)piperazin-1-yl)methanone] | 479 | 479 | 
